Test results: patent US20170071204A1, “ACTIVE COMPOUND COMBINATIONS HAVING IN[…]” (priority 2014, published 2017)

Legend:
Assay type in all cases: in vivo
[1] = tested on: mustard beetle larvae (Phaedon cochleariae); experiment: Phaedon cochleariae spray test (Chinese cabbage leaf disks); details: mortality after 6 d
Description: (§1) The expected activity for a given combination of two active compounds can be calculated according to S. R. Colby, Weeds 15 (1967), 20-22 as follows:
(§2) • X is the kill rate, expressed in % of the untreated control, when active compound A is applied at an application rate of m g/ha or at a concentration of m ppm, • Y is the kill rate, expressed in % of the untreated control, when active compound B is applied at an application rate of n g/ha or at a concentration of n ppm and • E is the kill rate, expressed in % of the untreated control, when active compounds A and B is applied at application rates of m and n g/ha or at a concentration of m and n ppm, then
(§3) If the observed insecticidal efficacy of the combination is higher than the one calculated as “E”, then the combination of the two compounds is more than additive, i.e., there is a synergistic effect.
Solvent: 78.0 parts by weight of acetone • • 1.5 parts by weight of dimethylformamide Emulsifier: alkylarylpolyglycol ether
(§4) To produce a suitable preparation of active compound, 1 part by weight of active compound is mixed with the stated amount of solvents and is diluted with water, containing an emulsifier concentration of 1000 ppm, to the desired concentration. To produce a suitable preparation of a spore suspension the spores are diluted with emulsifier containing water to the desired concentration. Further test concentrations are prepared by dilution with emulsifier containing water.
Chinese cabbage (Brassica pekinensis) leaf disks are sprayed with a preparation of the active ingredient of the desired concentration. Once dry, the leaf disks are infested with mustard beetle larvae (Phaedon cochleariae).
After the specified period of time, mortality in % is determined. 100% means all beetle larvae have been killed and 0% means none of the beetle larvae have been killed. The mortality values determined thus are recalculated using the Colby-formula (see sheet 1).

[2] = tested on: two spotted spidermite (Tetranychus urticae); experiment: Tetranychus urticae spray test OP-resistant (French bean leaf disks); details: for Efficacy in % after 2 d: mortality after 2 d
Description: as §1, §2, §3
(§5) Solvent: 78.0 parts by weight acetone • 1.5 parts by weight dimethylformamide Emulsifier: alkylarylpolyglycol ether
as §4
French bean (Phaseolus vulgaris) leaf disks which are heavily infested with all stages of the two spotted spidermite (Tetranychus urticae), are sprayed with a preparation of the active ingredient of the desired concentration.
After the specified period of time, mortality in % is determined. 100% means all spider mites have been killed and 0% means none of the spider mites have been killed. The mortality values determined thus are recalculated using the Colby-formula (see sheet 1).

[3] = tested on: green peach aphid (Myzus persicae); experiment: Myzus persicae spray test (Chinese cabbage leaf disks); details: for Efficacy in % after 1 d: mortality after 1 d; for Efficacy in % after 6 d: mortality after 6 d
Description: as §1, §2, §3, §5, §4
Chinese cabbage (Brassica pekinensis) leaf disks infected with all instars of the green peach aphid (Myzus persicae), are sprayed with a preparation of the active ingredient of the desired concentration.
After the specified period of time, mortality in % is determined. 100% means all aphids have been killed; 0% means none of the aphids have been killed. The mortality values determined thus are recalculated using the Colby-formula (see sheet 1).

For O=C(NC(=O)c1c(F)cccc1F)Nc1ccc(OC(F)(F)C(F)OC(F)(F)F)c(Cl)c1 (centres unmarked) [Novaluron], the “Efficacy in % after 6 d” value ([1]; 100 g ai/ha) was 0%.
N#CCNC(=O)c1cnccc1C(F)(F)F [Flonicamid] was tested, and the “Efficacy in % after 2 d” value ([2]; 4 g ai/ha) was 0%.
O=C(NC(=O)c1c(F)cccc1F)Nc1cc(Cl)c(OC(F)(F)C(F)C(F)(F)F)cc1Cl (centres unmarked) [Lufenuron] was tested, and the “Efficacy in % after 2 d” value ([2]; 20 g ai/ha) was 0%.
In the case of Abamectin, the “Efficacy in % after 6 d” value ([1]; 0.8 g ai/ha) is reported as 0%.
For O=C(/N=c1\ccccn1Cc1ccc(Cl)nc1)C(F)(F)F [N-[(2E)-1-[(6-chloropyridin-3-yl)methyl]pyridin-2(1H)-ylidene]-2,2,2-trifluoroacetamide], the “Efficacy in % after 6 d” value ([1]; 100 g ai/ha) was 0%.
CCOP(=S)(OCC)Oc1nc(Cl)c(Cl)cc1Cl [Chlorpyrifos] was tested, and the “Efficacy in % after 6 d” value ([2]; 4 g ai/ha, mortality after 6 d) was 0% and the “Efficacy in % after 2 d” value ([2]; 20 g ai/ha) was 0%.
In the case of O=C1C=C(N(Cc2ccc(Cl)nc2)CC(F)F)CO1 [Flupyradifurone], the “Efficacy in % after 2 d” value ([2]; 0.8 g ai/ha) is reported as 0% and the “Efficacy in % after 2 d” value ([2]; 4 g ai/ha) is reported as 0%.
For Lepimectin, the “Efficacy in % after 1 d” value ([3]; 4 g ai/ha) was 0%, the “Efficacy in % after 6 d” value ([3]; 4 g ai/ha) was 0% and the “Efficacy in % after 1 d” value ([3]; 20 g ai/ha) was 0%. For the same molecule, the “Efficacy in % after 6 d” value ([3]; 20 g ai/ha) was 0%.
For Milbemectin, the “Efficacy in % after 6 d” value ([3]; 4 g ai/ha) was 0%.
